Measurements published in ChEMBL document CHEMBL3430912, “GSK Tres Cantos Anti-Kinetoplastid Screening (TCAKS) Data”.

Legend:
[1] = test system: Trypanosoma cruzi; assay: GSK_TCAKS: pIC50 Trypanosoma cruzi viability assay using beta-GAL activity. This assay was run at single shot at 5uM compound concentration per well. The biological reagents consisted of NIH-3T3 host cells and trypomastigotes parasitic cells; both cell types were set to a 3.3 * 10^5 cells/mL dilution in assay DMEM by means of a CASY cell counter device using a 60um capillary. 6 uL of the mixture were dispensed per well (about 1 * 10^3 host-cells and 1 * 10^3 parasites) with a Multidrop Combi dispenser. […] In all wells, the percentage of DMSO never exceeded 0.5%. Plates incubated for four days at 37C, 5% CO2. The substrate used for the assay fluorescence intensity (FLINT) readout was resorufin-beta-D-galactopiranoside (Sigma-Aldrich) at 5uM per well. It was diluted in PBS supplemented with the soft detergent Igepal (Fluka).; type: functional, organism-based, Mus musculus; details: Tulahuen, NIH3T3
[2] = test system: Trypanosoma cruzi; assay: (§1) GSK_TCAKS: pIC50 Trypanosoma cruzi Imaging: Infected Cells. […] Cells were then washed once with PBS before infection. T. cruzi trypomastigotes, collected at days 5 to 8 after infection from LLC-MK2 parasite infected cultures, were allowed to swim out for 4h at 37C from a centrifuged pellet (2,500 rpm/10 min/room temperature). Trypomastigotes were then collected and counted in a CASY Cell Counter. Trypomastigotes, in supplemented DMEM, were added to H9c2 cultures in a multiplicity of infection of 1 and incubated for 18 h. Cells were washed once with PBS before incubation of the infected H9c2 monolayer with trypsin (Life-Technologies) to detach cells from the flask. Cells were counted in a CASY Cell Counter using a 150 um capillary and their density set at 5 * 10^4 cells per mL in supplemented assay DMEM. Infected H9c2 were dispensed into 384-well poly-lysine coated assay plates at 50uL per well using a Multidrop Combi dispenser. After seeding them, the plates were incubated at 37C, 5% CO2 for 72h. Cultures were then fixed and stained by addition of 50 uL of a solution containing 8% formaldehyde and 4 uM DRAQ5 DNA dye (BioStatus, UK) per well. […] Five images were collected per well for reliable statistical analysis. Automated image analysis was performed with a script developed on Acapella High Content Imaging and Analysis Software (PerkinElmer). Output: percentage of infected cells per well as a second infection marker.; type: functional, organism-based, Rattus norvegicus; details: H9c2, 4 h
[3] = test system: Trypanosoma cruzi; assay: GSK_TCAKS: pIC50 Trypanosoma cruzi Imaging: Amastigotes/Cell. […] Cells were then washed once with PBS before infection. T. cruzi trypomastigotes, collected at days 5 to 8 after infection from LLC-MK2 parasite infected cultures, were allowed to swim out for 4h at 37C from a centrifuged pellet (2,500 rpm/10 min/room temperature). Trypomastigotes were then collected and counted in a CASY Cell Counter. Trypomastigotes, in supplemented DMEM, were added to H9c2 cultures in a multiplicity of infection of 1 and incubated for 18 h. Cells were washed once with PBS before incubation of the infected H9c2 monolayer with trypsin (Life-Technologies) to detach cells from the flask. Cells were counted in a CASY Cell Counter using a 150 um capillary and their density set at 5 * 10^4 cells per mL in supplemented assay DMEM. Infected H9c2 were dispensed into 384-well poly-lysine coated assay plates at 50uL per well using a Multidrop Combi dispenser. After seeding them, the plates were incubated at 37C, 5% CO2 for 72h. Cultures were then fixed and stained by addition of 50 uL of a solution containing 8% formaldehyde and 4 uM DRAQ5 DNA dye (BioStatus, UK) per well. […] Five images were collected per well for reliable statistical analysis. Automated image analysis was performed with a script developed on Acapella High Content Imaging and Analysis Software (PerkinElmer). Output: number of amastigotes per cell as infection level measurement.; type: functional, organism-based, Rattus norvegicus; details: H9c2, 4 h
[4] = test system: Trypanosoma cruzi; assay: as §1, with “H2C9” for “Trypanosoma cruzi”, “H9c2 Host Cardiomyocytes.” for “Infected Cells.”, “Number” for “percentage”, “H9c2 Host Cardiomyocytes nuclei to determine drug-related cytotoxicity.” for “infected cells per well as a second infection marker.”; type: functional, organism-based, Rattus norvegicus; details: H9c2, 4 h
[5] = test system: Leishmania donovani; assay: GSK_TCAKS: pIC50 Leishmania donovani viability assay using fluorescence intensity. Assay plates (1536-well) were prepared by adding 30nL per well of compound. For single shot assay, the final compound concentration was 5uM. […] Briefly, eGFP LdBOB axenic amastigotes were harvested, fixed and counted in a CASY cell counter (Roche-Applied Science). A final concentration of 1.5 * 10^5 cells per well were prepared in amastigote media containing 500 U/mL penicillin/streptomycin (Invitrogen) and 6uL was dispensed to each experimental well using a Multidrop Combi dispenser (Thermo Scientific). 6uL of assay media was dispensed to control columns used as reference for 100% compound response. Following incubation for 72 h at 37C, 5% CO2, 2 uL of resazurin was added to each well at a final concentration of 0.5 mM in phosphate buffered saline (PBS) with IGEPAL (Sigma-Aldrich), 0.05% (v/v).; type: functional, organism-based
[6] = test system: Leishmania donovani; assay: GSK_TCAKS: pIC50 Leishmania donovani Imaging: Infected Macrophages. Assay plates (384-well) were prepared by adding 250nL of compound to each well. For single shot assay, the final compound concentration was 5 uM. […] Automated image analysis was performed with a script developed on Acapella High Content Imaging and Analysis Software (PerkinElmer). Output: Percent of infected macrophage cells were reported for each well.; type: functional, organism-based, Homo sapiens; details: THP-1
[7] = test system: Leishmania donovani; assay: GSK_TCAKS: pIC50 Leishmania donovani Imaging: Amastigotes/Macrophages. Assay plates (384-well) were prepared by adding 250nL of compound to each well. For single shot assay, the final compound concentration was 5 uM. […] Automated image analysis was performed with a script developed on Acapella High Content Imaging and Analysis Software (PerkinElmer). Output: Average number of amastigotes per macrophage cell were reported for each well.; type: functional, organism-based, Homo sapiens; details: THP-1
[8] = test system: Leishmania donovani; assay: GSK_TCAKS: pIC50 Leishmania donovani Imaging: THP-1 Host Macrophages. Assay plates (384-well) were prepared by adding 250nL of compound to each well. For single shot assay, the final compound concentration was 5 uM. […] Automated image analysis was performed with a script developed on Acapella High Content Imaging and Analysis Software (PerkinElmer). Output: THP-1 cell count were reported for each well.; type: functional, organism-based, Homo sapiens
[9] = test system: Trypanosoma brucei brucei; assay: GSK_TCAKS: pIC50 Trypanosoma brucei viability assay using fluorescence intensity. Assay plates (1536-well) were prepared by dispensing 25nL of compound solution per well using an Echo acoustic dispenser (Labcyte).; type: functional, organism-based; details: Lister 427, 2 h
[10] = test system: Trypanosoma brucei brucei; assay: GSK_TCAKS: pIC50 Trypanosoma brucei viability assay using luminiscence. Assay plates (1536-well) were prepared. T. brucei cultures were harvested and counted in a CASY cell counter. A parasite suspension was prepared at a final concentration of 5 * 10^4 cells/mL in complete HMI9 medium and 6uL was dispensed to all wells containing compounds using a Multidrop Combi dispenser. 6uL of HMI9 media with 0.4% DMSO were dispensed to control columns. Plates were incubated for 24 h at 37C, 5% CO2 then tempered for 10 min at room temperature. ATP content was quantified by adding 4 uL of CellTiter-Glo Reagent (Promega) according to the manufacturer's instructions. Luminescence was measured using a ViewLux.; type: functional, organism-based; details: Lister 427, CASY
[11] = GSK_TCAKS: pIC50 HepG2 human cell line viability assay using luminiscence. […] Seeding density was checked to ensure that new mono-layers were not more than 50% confluent at the time of harvesting. Cell suspension was added to 500 mL of the same medium at a final density of 1.2 * 10^5 cells/mL. This cell suspension was dispensed (25 uL, 3000 cells per well) into 384-well clear-bottom plates using a Multidrop Combi dispenser. Prior to addition of the cell suspension, the screening compounds (250 nL) were pre-dispensed into the plates with an Echo liquid handler. Plates were incubated for 48 h at 37C, 5% CO2. After incubation, plates equilibrated at room temperature for 30 min before proceeding to develop the luminescent signal. The signal developer, CellTiter-Glo Reagent, was allowed to equilibrate at room temperature for 30 min and added to the plates (25uL per well) using a Multidrop Combi dispenser. Plates were left for 10 min at room temperature for stabilization and then read using a ViewLux.; type: toxicity, cell-based
[12] = test system: NIH3T3; assay: GSK_TCAKS: pIC50 NIH 3T3 cell line viability assay using luminiscence. Tissue culture surface treated assay plates (1536-well) were used. […] The 100% cells survival control was determined exposing the host-cells to a 0.5% DMSO concentration, whereas the 100% toxicity control was achieved by seeding the cells in presence of Amphotericin B at 50uM. Plates were incubated for four days at 37C, 5% CO2. The assay readout was developed by addition of 5uL of CellTiter-Glo Reagent following the manufacturer's instructions. Luminiscence was measured using a ViewLux.; type: functional, cell-based; details: Mus musculus, NIH3T3, 96 h
[13] = biological target: Sterol 14-alpha demethylase (Trypanosoma cruzi (strain CL Brener), UniProt Q7Z1V1); assay: GSK_TCAKS: pIC50 CYP51 from Trypanosoma cruzi.; type: functional
Sequence of Sterol 14-alpha demethylase (Q7Z1V1 whole entry): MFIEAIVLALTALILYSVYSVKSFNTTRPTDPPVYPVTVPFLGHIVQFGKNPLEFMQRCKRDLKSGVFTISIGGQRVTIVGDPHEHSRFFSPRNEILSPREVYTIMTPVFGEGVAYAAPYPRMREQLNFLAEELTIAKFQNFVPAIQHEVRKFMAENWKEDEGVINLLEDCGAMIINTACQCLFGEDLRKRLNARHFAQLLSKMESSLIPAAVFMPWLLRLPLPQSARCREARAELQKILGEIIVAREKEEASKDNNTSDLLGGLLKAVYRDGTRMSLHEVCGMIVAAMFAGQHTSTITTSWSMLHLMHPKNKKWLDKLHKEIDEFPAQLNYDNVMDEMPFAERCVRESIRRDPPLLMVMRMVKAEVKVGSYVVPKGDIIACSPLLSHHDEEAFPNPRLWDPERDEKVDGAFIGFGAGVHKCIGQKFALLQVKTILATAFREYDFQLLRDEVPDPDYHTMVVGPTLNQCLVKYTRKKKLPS

SMILES | IC50 [1] [µM] | IC50 [2] [µM] | IC50 [3] [µM] | IC50 [4] [µM] | IC50 [5] [µM] | IC50 [6] [µM] | IC50 [7] [µM] | IC50 [8] [µM] | IC50 [9] [µM] | IC50 [10] [µM] | IC50 at 48 h [11] [µM] | IC50 [12] [µM] | IC50 [13] [µM]
O=C(c1ccc(OCCCc2cnc[nH]2)cc1)C1CC1 | 0.355 | 1.58 | 1.26 | > 50.1 | > 50.1 | > 50.1 | 7.94 | > 50.1 | 10 | > 39.8 | > 100 | 12.6 | 0.0501
Cc1cc(C)c(C#N)c(SCC(=O)c2ccc3c(c2)OCO3)n1 | 2 | 0.794 | 0.398 | > 50.1 | > 50.1 | > 50.1 | > 50.1 | > 50.1 | 20 | 15.8 | > 100 | > 50.1 | > 100
Cc1cc(Br)cc(C(=O)c2c(C(C)C)c(=O)[nH]c(=O)n2Cc2ccnc(N)c2)c1 | 0.398 | 0.316 | 0.251 | > 50.1 | > 50.1 | 31.6 | 20 | 39.8 | 12.6 | 25.1 | > 100 | 15.8 | 0.0158
O=C(NCC1CCCCC1)c1cnns1 | 2.51 | 3.16 | 2 | > 50.1 | 12.6 | > 50.1 | 10 | > 50.1 | 1 | 1.26 | 39.8 | > 50.1 | > 100
O=C1CN(C2CCCc3c(OCc4ccncc4)cccc32)C(=O)N1C1CCCCC1 (stereo not given) | 0.251 | 0.0158 | 0.0126 | > 50.1 | > 50.1 | > 50.1 | > 50.1 | > 50.1 | 15.8 | > 39.8 | > 100 | > 50.1 | 0.02
Cc1cccc(NS(=O)(=O)c2ccc3c(c2)C(=O)c2cc(S(=O)(=O)Nc4cccc(C)c4C)ccc2-3)c1C | 0.398 | 0.398 | 0.398 | 31.6 | > 50.1 | > 50.1 | > 50.1 | > 50.1 | 7.94 | 10 | > 100 | > 50.1 | > 100
O=C(Cn1cnc([N+](=O)[O-])n1)Nc1ccc(Cl)cc1C(=O)c1ccccc1 | 0.251 | 1.26 | 0.316 | > 50.1 | > 50.1 | > 50.1 | > 50.1 | > 50.1 | 20 | 31.6 | > 100 | > 50.1 | 10
N#Cc1ccc(S(=O)(=O)N2CCN(Cc3cccc(-c4ccncc4)c3)CC2)cc1 | 0.398 | 0.251 | 0.2 | 25.1 | > 50.1 | > 50.1 | 1.26 | > 50.1 | > 39.8 | 20 | > 100 | 12.6 | 0.0794
CN(C)Cc1ccc(N2CCC(NS(=O)(=O)c3ccc(Cl)cc3)CC2)cc1 | 0.794 | 0.316 | 0.251 | 12.6 | 39.8 | > 50.1 | 25.1 | 25.1 | 25.1 | 31.6 | 50.1 | 15.8 | > 100
Oc1nccc2ccc(-c3ccncc3)cc12 | 0.2 | 0.251 | 0.251 | > 50.1 | > 50.1 | > 50.1 | 20 | 39.8 | 31.6 | > 39.8 | > 100 | > 50.1 | 0.0158
